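Test compounds were applied to cells in 96-well plates for 48 hours at 5 doses. GI50 is the concentration that inhibits growth by half. TGI is the concentration that stops growth completely.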
Each molecule was assayed on EKVX NSCLC (assay: DTP human tumour cell line panel, 48 h).
`N#Cc1c(-c2ccco2)cc(-c2ccc(N)cc2)[nH]c1=O` was tested, and the TGI was greater than 100 µM. `C=CCC1(C)CCCCC1(O)CS(=O)c1ccccc1` (centres undefined) was tested, and the TGI was greater than 100 µM. `C1COCCSC2=C(SCCO1)SC(=C1SC3=C(SCCOCCOCCS3)S1)S2` showed a TGI greater than 100 µM. `COc1cc(C(=O)O[C@H](C(N)=O)[C@]2(C)CO2)c2cccc(C)c2c1` gave a GI50 of 0.35 µM and a TGI of 4.61 µM. In the case of `COc1cc(/C=N\O[Si](C)(C)C(C)(C)C)ccc1O[Si](C)(C)C(C)(C)C`, the TGI is reported as greater than 100 µM. `CC12CCC(=O)N1c1cccnc1N2` (centres undefined) gave a TGI greater than 100 µM. Work on `COc1cc2c(cc1OC)C1Cc3cc(OC)c(OC)cc3N1CC2` (centres undefined) yielded a TGI of 89.5 µM. In the case of `O=C(NNc1cnccn1)c1nc2cc(F)ccc2n2cccc12`, the GI50 is reported as 0.387 µM and the TGI is reported as greater than 100 µM. `O=C1C2[C@@H](C(=O)N1c1ccc(Br)cc1)C13C(=CC2([N+](=O)[O-])[C@@H]2C(=O)N(c4ccc(Br)cc4)C(=O)[C@@H]21)c1ccccc1N3c1ccccc1` (some centres undefined) gave a TGI greater than 100 µM. For `CCOC(=O)C1=C(Nc2ccc(Br)cc2)OCC1=O`, the TGI was greater than 100 µM. `CCOc1ccc(N=Cc2c3ccccc3nc3ccccc23)cc1` showed a TGI greater than 100 µM. Molecule `Nc1ccc(C2=N/C(=C\c3cccc(N)c3)C(=O)O2)cc1` has a TGI greater than 100 µM. With `CC(=O)[CH-]C(=O)c1ccccc1.CC(=O)[CH-]C(=O)c1ccccc1.O=S(=O)([O-])c1cc([O-])c2c([O-])cc(S(=O)(=O)[O-])cc2c1.[Na+].[Ti+4]` the GI50 was greater than 100 µM and the TGI was greater than 100 µM. Work on `NCCN.O=C([O-])[O-].O=C([O-])[O-].[Co+3].[K+]` yielded a GI50 greater than 100 µM and a TGI greater than 100 µM. `C1=NC(N(Cc2ccccc2)Cc2ccccc2)N(Cc2ccccc2)N1` (centres undefined) was tested, and the TGI was 56.2 µM.

What follows are molecules tested on U251 CNS (assay: DTP human tumour cell line panel, 48 h).
`CCc1cccc(C)c1NC(=O)CC1C(=O)Nc2ccccc2S1=O` (centres undefined) was tested, and the TGI was 55.4 µM. Work on `Cc1ccc(N2C(=O)N(c3ccc(C)cc3)C3(SC=NN3C)C2=O)cc1` (centres undefined) yielded a TGI greater than 100 µM. Molecule `O=C1c2ccc3c4ccccc4n(-c4ccccc4)c3c2C(=O)N1c1ccc(Cl)cc1` has a TGI greater than 100 µM. With `Cc1ccc2c(c1-c1ccccc1)C(=O)OC2` the TGI was greater than 100 µM. `CCC[CH2][Sn]1([CH2]CCC)[O]CC(COc2c(Cl)cc(Cl)cc2Cl)[O]1` (centres undefined) was tested, and the GI50 was 0.845 µM and the TGI was 2.18 µM. In the case of `NC(CCc1ncc(C(=O)O)s1)C(=O)O` (centres undefined), the TGI is reported as greater than 100 µM. For `CSc1ccc2c(cc1=O)[C@@H](NC(=O)c1cc(O)c(O)c(O)c1)CCc1cc(O)c(O)c(O)c1-2`, the TGI was 37.7 µM. Molecule `CNCCn1c(=O)c2cc(OC)c(OC)cc2c2cnc3cc4c(cc3c21)OCO4` has a GI50 of less than 0.01 µM and a TGI of 0.0242 µM. In the case of `COc1cc(-c2nnc3n2NC=C(C(=O)O)S3)cc(OC)c1OC`, the TGI is reported as greater than 100 µM. `C[P+](C)(C)c1ccccc1` showed a TGI greater than 100 µM. Molecule `O=C1c2ccccc2C(=O)N1C/C=N/NS(=O)(=O)c1ccc(Br)cc1` has a TGI greater than 100 µM. `COc1ccc(-c2noc(N)c2-c2cc(OC)c3c(c2)OCO3)cc1` was tested, and the GI50 was 3.7 µM and the TGI was greater than 100 µM. Work on `NC(=O)c1cn(Cc2ccccc2)c(=O)n1Cc1ccccc1` yielded a TGI greater than 100 µM. With `CCOC(=O)C(C)(c1c(C)[nH]c2ccccc12)c1c(C)[nH]c2ccccc12` the TGI was 33.4 µM. Work on `Cc1c(Cl)cccc1NC(=O)c1cccc([N+](=O)[O-])c1O` yielded a TGI of 77.5 µM. In the case of `CC1CCC(C(C)(C)c2ccccc2)C(=O)C1` (centres undefined), the TGI is reported as greater than 100 µM. In the case of `CC1(C)N=C(N)N=C(N)N1c1cccc(OCCOc2cccc([N+](=O)[O-])c2)c1`, the GI50 is reported as 0.808 µM and the TGI is reported as greater than 100 µM. `O=C1CC2CCN(C(=O)c3ccccc3)CC2CCN1` (centres undefined) was tested, and the TGI was greater than 100 µM. Work on `O=C1C=CC(=CC=C2C=CN(CCCCCCCCCCC(=O)NCCCCCCCCCCCC(=O)O)C=C2)C=C1` yielded a TGI greater than 100 µM. `N#Cc1c(-c2ccco2)cc(-c2ccc(N)cc2)[nH]c1=O` showed a TGI greater than 100 µM. In the case of `C=CCC1(C)CCCCC1(O)CS(=O)c1ccccc1` (centres undefined), the TGI is reported as greater than 100 µM. For `C1COCCSC2=C(SCCO1)SC(=C1SC3=C(SCCOCCOCCS3)S1)S2`, the TGI was greater than 100 µM. `O=C(Nc1ccc(Cl)cc1)Nc1nccs1` gave a GI50 of 3.44 µM and a TGI of 26.9 µM. Work on `COc1cc(/C=N\O[Si](C)(C)C(C)(C)C)ccc1O[Si](C)(C)C(C)(C)C` yielded a TGI of 71.5 µM. `CC12CCC(=O)N1c1cccnc1N2` (centres undefined) gave a TGI greater than 100 µM. `COc1cc2c(cc1OC)C1Cc3cc(OC)c(OC)cc3N1CC2` (centres undefined) was tested, and the TGI was greater than 100 µM. For `O=C(N/N=C/c1ccc(O)cc1O)c1cccnc1`, the GI50 was 2.42 µM and the TGI was 41.5 µM. `O=C(NNc1cnccn1)c1nc2cc(F)ccc2n2cccc12` gave a GI50 of 0.363 µM and a TGI greater than 100 µM. For `O=C1C2[C@@H](C(=O)N1c1ccc(Br)cc1)C13C(=CC2([N+](=O)[O-])[C@@H]2C(=O)N(c4ccc(Br)cc4)C(=O)[C@@H]21)c1ccccc1N3c1ccccc1` (some centres undefined), the TGI was greater than 100 µM. Work on `O=C1/C(=C/N2N=C(c3ccc4ccccc4c3)CC2c2ccccc2O)SC(=S)N1c1cccnc1` (centres undefined) yielded a GI50 of 0.897 µM and a TGI of 61 µM. Work on `CCOC(=O)C1=C(Nc2ccc(Br)cc2)OCC1=O` yielded a TGI greater than 100 µM. Work on `CCOc1ccc(N=Cc2c3ccccc3nc3ccccc23)cc1` yielded a TGI greater than 100 µM. With `Nc1ccc(C2=N/C(=C\c3cccc(N)c3)C(=O)O2)cc1` the TGI was greater than 100 µM. In the case of `CC(=O)[CH-]C(=O)c1ccccc1.CC(=O)[CH-]C(=O)c1ccccc1.O=S(=O)([O-])c1cc([O-])c2c([O-])cc(S(=O)(=O)[O-])cc2c1.[Na+].[Ti+4]`, the GI50 is reported as 97.8 µM and the TGI is reported as greater than 100 µM. `NCCN.O=C([O-])[O-].O=C([O-])[O-].[Co+3].[K+]` gave a GI50 greater than 100 µM and a TGI greater than 100 µM. Molecule `C1=NC(N(Cc2ccccc2)Cc2ccccc2)N(Cc2ccccc2)N1` (centres undefined) has a TGI of 32.1 µM.

These molecules were tested on A549 NSCLC (assay: DTP human tumour cell line panel, 48 h).
Work on `CCc1cccc(C)c1NC(=O)CC1C(=O)Nc2ccccc2S1=O` (centres undefined) yielded a TGI greater than 100 µM. `Cc1ccc(N2C(=O)N(c3ccc(C)cc3)C3(SC=NN3C)C2=O)cc1` (centres undefined) gave a TGI greater than 100 µM. `O=C1c2ccc3c4ccccc4n(-c4ccccc4)c3c2C(=O)N1c1ccc(Cl)cc1` was tested, and the TGI was greater than 100 µM. For `Cc1ccc2c(c1-c1ccccc1)C(=O)OC2`, the TGI was greater than 100 µM. `CCC[CH2][Sn]1([CH2]CCC)[O]CC(COc2c(Cl)cc(Cl)cc2Cl)[O]1` (centres undefined) was tested, and the GI50 was 5.15 µM and the TGI was 17.7 µM. For `NC(CCc1ncc(C(=O)O)s1)C(=O)O` (centres undefined), the TGI was greater than 100 µM. `CSc1ccc2c(cc1=O)[C@@H](NC(=O)c1cc(O)c(O)c(O)c1)CCc1cc(O)c(O)c(O)c1-2` was tested, and the TGI was 92 µM. `CNCCn1c(=O)c2cc(OC)c(OC)cc2c2cnc3cc4c(cc3c21)OCO4` gave a GI50 of less than 0.01 µM and a TGI of 1.31 µM. Molecule `COc1cc(-c2nnc3n2NC=C(C(=O)O)S3)cc(OC)c1OC` has a TGI greater than 100 µM. For `C[P+](C)(C)c1ccccc1`, the TGI was greater than 100 µM. `O=C1c2ccccc2C(=O)N1C/C=N/NS(=O)(=O)c1ccc(Br)cc1` showed a TGI greater than 100 µM. `COc1ccc(-c2noc(N)c2-c2cc(OC)c3c(c2)OCO3)cc1` showed a GI50 of 3.13 µM and a TGI greater than 100 µM. `NC(=O)c1cn(Cc2ccccc2)c(=O)n1Cc1ccccc1` gave a TGI greater than 100 µM. In the case of `CCOC(=O)C(C)(c1c(C)[nH]c2ccccc12)c1c(C)[nH]c2ccccc12`, the TGI is reported as 49.7 µM. `Cc1c(Cl)cccc1NC(=O)c1cccc([N+](=O)[O-])c1O` showed a TGI greater than 72.1 µM. Work on `CC1COS(=O)O1` (centres undefined) yielded a TGI greater than 100 µM. `CC1CCC(C(C)(C)c2ccccc2)C(=O)C1` (centres undefined) was tested, and the TGI was greater than 100 µM. Work on `CC1(C)N=C(N)N=C(N)N1c1cccc(OCCOc2cccc([N+](=O)[O-])c2)c1` yielded a GI50 of 0.561 µM and a TGI greater than 100 µM. Work on `O=C(NC1CCCCC1)c1ccc(Nc2ncnc3c2cnn3-c2ccccc2)cc1` yielded a GI50 of 4.38 µM and a TGI of 51.3 µM. `O=C1CC2CCN(C(=O)c3ccccc3)CC2CCN1` (centres undefined) gave a TGI greater than 100 µM. `N#CC(C#N)=C1CCCOc2c1ccc1ccccc21` showed a GI50 greater than 100 µM and a TGI greater than 100 µM. Molecule `O=C1C=CC(=CC=C2C=CN(CCCCCCCCCCC(=O)NCCCCCCCCCCCC(=O)O)C=C2)C=C1` has a TGI greater than 100 µM. Work on `N#Cc1c(-c2ccco2)cc(-c2ccc(N)cc2)[nH]c1=O` yielded a TGI greater than 100 µM. Work on `C=CCC1(C)CCCCC1(O)CS(=O)c1ccccc1` (centres undefined) yielded a TGI greater than 100 µM. Molecule `C1COCCSC2=C(SCCO1)SC(=C1SC3=C(SCCOCCOCCS3)S1)S2` has a TGI greater than 100 µM. `COc1cc(C(=O)O[C@H](C(N)=O)[C@]2(C)CO2)c2cccc(C)c2c1` showed a TGI greater than 100 µM. With `O=C(Nc1ccc(Cl)cc1)Nc1nccs1` the GI50 was 0.775 µM and the TGI was greater than 100 µM. Work on `COc1cc(/C=N\O[Si](C)(C)C(C)(C)C)ccc1O[Si](C)(C)C(C)(C)C` yielded a TGI greater than 100 µM. In the case of `CC12CCC(=O)N1c1cccnc1N2` (centres undefined), the TGI is reported as greater than 100 µM. In the case of `COc1cc2c(cc1OC)C1Cc3cc(OC)c(OC)cc3N1CC2` (centres undefined), the TGI is reported as 79.9 µM. For `O=C(N/N=C/c1ccc(O)cc1O)c1cccnc1`, the GI50 was 4.66 µM and the TGI was greater than 100 µM. `O=C(NNc1cnccn1)c1nc2cc(F)ccc2n2cccc12` gave a GI50 of 0.542 µM and a TGI greater than 100 µM. Work on `O=C1C2[C@@H](C(=O)N1c1ccc(Br)cc1)C13C(=CC2([N+](=O)[O-])[C@@H]2C(=O)N(c4ccc(Br)cc4)C(=O)[C@@H]21)c1ccccc1N3c1ccccc1` (some centres undefined) yielded a TGI greater than 100 µM. `O=C1/C(=C/N2N=C(c3ccc4ccccc4c3)CC2c2ccccc2O)SC(=S)N1c1cccnc1` (centres undefined) was tested, and the GI50 was 0.704 µM and the TGI was greater than 100 µM.

From PubChem BioAssay (NCI)
